Laboratory results reported in patent US20210138039A1, “PAIN RESPONSE MEDIATOR COMPOSITIONS AND METHODS FOR MAKING AND USING SAME” (Q-STATE BIOSCIENCES, INC., priority 2017, published 2021).
No end group written: not given here.

How the values were obtained:
mouse DRG neurons = format: cell-based
[1] = system: iPS cell-derived sensory neurons; format: cell-based, human
animal models = settings: subcutaneous injection; cited from earlier work
rats = settings: injected in rats; cited from earlier work
Cultured DRG neurons = assay: Firing phenotypes of cultured DRG neurons; format: cell-based, rodent
humans = settings: injection in humans; cited from earlier work
[2] = system: E18 rat hippocampal neurons; assay: High-throughput fluorescent voltage recording, 96-well plate (FIGS. 30-34); format: cell-based; settings: 1 μM; neurons cultured for 14 days; blue light stimulus
Excerpt: FIGS. 30-34 show high-throughput validation for screening. E18 rat hippocampal neurons cultured for 14 days.
The blue light stimulus is shown below.
FIG. 31 is a raster plot showing spikes from columns of wells.
Vehicle wells (even columns, green) and ML213 wells (odd columns, red) are easily distinguished. Even numbered columns are all green; odd numbered columns are all read.

In the case of `NC1=N[C@H](O)[C@H]2[C@H]3O[C@]4(O)O[C@@H]([C@@H](O)[C@@]2(N1)[C@@H]4O)[C@]3(O)CO` [TTX, tetrodotoxin], the after-hyperpolarization depth (mouse DRG neurons) is reported as “decreases”, the “effect on the pain mediator composition-induced firing” value (mouse DRG neurons) is reported as “blocks the effect of the pain mediator composition” and the spike width (mouse DRG neurons) is reported as “increases”. The “spiking in response to the blue stimulus” value [1] was “almost all spiking is blocked”.

In the case of “endothelin 1 (CSCSSLMDKECVYFCHLDIIW; ends and bridges not checked; cysteine pairing not given here; UniProt P05305 53-73, looked up) [ET-1]”, the “sensitization (paw withdrawal threshold)” value (animal models) is listed as “local sensitization”.

For “IL-6: an inflammatory cytokine found to be elevated around tumors”, the pain on injection (rats) is listed as “causes local pain”.

In the case of `COc1cc(CNC(=O)CCCC/C=C/C(C)C)ccc1O` [capsaicin], the “firing phenotype in response to capsaicin” value (Cultured DRG neurons) is reported as “acute response”.

For `Nc1ncnc2c1ncn2[C@@H]1O[C@H](COP(=O)(O)OP(=O)(O)OP(=O)(O)O)[C@@H](O)[C@H]1O` [ATP, adenosine triphosphate], the “pain sensitivity on injection” value (humans) is given as “increased pain sensitivity”.

In the case of `Cc1cc(C)c(NC(=O)C2CC3CCC2C3)c(C)c1` (stereo not shown) [ML213], the firing rate [2] is reported as “dramatically reduces firing rate in all wells tested”.

For TNF-a, the pain on injection (rats) is given as “cause pain”.
